Laboratory results as given in PubChem BioAssay AID1963983 (Molecular Pharmacology Branch, DTP, NCI, 2024).
One block for each compound: values may come before it.

Tested on: 186277-243-T-J2-PDC multi-cell spheroid viability
Assay: Anticancer human tumor 186277-243-T-J2-PDC patient-derived colon adenocarcinoma cell line growth inhibition [PI3K]
Details: for IC50: curve of first compound; for viability, T/C: stronger effect = lower value
Text: Combinatorial screen of targeted agents with the PI3K inhibitors inavolisib, alpelisib, duvelisib, and copanlisib in multi-cell type tumor spheroids
A high-throughput screen of multi-cell type tumor spheroids was designed to identify active combinations of targeted small molecules and PI3K pathway inhibitors. Complex spheroids include a stromal component modeled by human endothelial cells (HUVEC) and fibroblasts modeled by human mesenchymal stem cells (MSCs). The concentration ranges selected for each drug and investigational agent were based upon clinically achievable concentrations if the clinical Cmax of the agent was known.
Compounds. The drugs and investigational agents: inavolisib (NSC800729), alpelisib (NSC765974), duvelisib (NSC772469), copanlisib (NSC816437), ipatasertib (NSC767898), afuresertib (NSC778305), talazoparib (NSC767125), sapanisertib (NSC764658), selumetinib (NSC741078), tovorafenib (DAY101, NSC766906), vemurafenib (NSC761431), ravoxertinib (NSC781343), sotorasib (NSC818433), MRTX1133 (NSC 836407), abemaciclib (NSC 768073), palbociclib (NSC758247), venetoclax (NSC 766270), SY5609 (NSC837396), enzalutamide (NSC755605), and darolutamide (NSC825331), were obtained from the National Cancer Institute (NCI) Developmental Therapeutics Program Chemical Repository. The FDA-approved anticancer drug set is available from the NCI Developmental Therapeutics Program. […] The stock solutions were prepared in dimethyl sulfoxide (DMSO, Sigma-Aldrich, St. Louis, MO, cat. D2650) at 800-fold the tested concentration and stored at -70 degrees C prior to their use. All drugs and investigational agents were tested over a range starting from a high concentration at or near the clinical Cmax and decreasing in half-log increments. If the clinical Cmax for an agent had not been determined, the highest concentration tested was 10 microM.
Cell Culture. All cells were maintained in an incubator at 37 degrees C and 5% CO2 with 95% humidity. The PDC lines were cultured according to standard operating procedures established by the NCI PDMR (https://pdmr.cancer.gov/sops/default.htm). All PDCs were thawed and cultured in Matrigel-coated flasks prepared with a working solution of 1X Ham's F-12 nutrient mix, without supplementation (Invitrogen, Waltham, MA, cat. 11765054), 100 U/mL penicillin-streptomycin (Invitrogen, cat. 15140122), and 2.5% Matrigel (Corning Inc., Corning, NY, cat. 354248) for the first three passages. The 354836-022-R-J1-PDC, 475296-252-R-J1-PDC, and 997726-040-R-J2-PDC lines were cultured in 6A media, which includes advanced DMEM/F-12 (Thermo Fisher Scientific, cat. 12634028), 10 mM HEPES (Thermo Fisher Scientific, cat. 15630080), 1X GlutaMAX supplement (Thermo Fisher Scientific, cat. 35050061), 0.1 mg/mL primocin (InvivoGen, San Diego, CA, cat. ant-pm-2), 10% defined fetal bovine serum, heat inactivated (HyClone Laboratories Inc., Logan, UT, cat. SH30070.03HI), 50% L-WRN conditioned media (ATCC, cat. CRL-3276), 1.25 mM N-Acetyl-L-cysteine (Sigma-Aldrich, cat. A9165), 10 mM nicotinamide (Sigma-Aldrich, cat. N0636), 1X B-27 supplement (Thermo Fisher Scientific, cat. 17504044), 1X N-2 supplement (Thermo Fisher Scientific, cat. 17502048), and 10 microM Y-27632 dihydrochloride (Tocris Bioscience, Bristol, United Kingdom, cat. 1254). The 624824-186-R-J2-PDC line was cultured in 6C/Colon 1B media, which includes all 6A media components plus 50 ng/mL human EGF recombinant protein (Thermo Fisher Scientific, cat. PHG0311). […]
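Also: spheroids exposed to compounds for seven days before viability reading.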
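For viability, T/C in this document: 100% = DMSO vehicle control viability.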

IC50 (second compound 0.00316 µM): > 10000 nM
IC50 (second compound 0.01 µM): > 10000 nM
IC50 (second compound 0.0316 µM): > 10000 nM
IC50 (second compound 0.1 µM): < 31.6 nM
IC50 (second compound 0.316 µM): < 31.6 nM
IC50 (second compound 1 µM): < 31.6 nM
Compound: CC(Cn1ccc(-c2ccc(C#N)c(Cl)c2)n1)NC(=O)c1cc(C(C)O)[nH]n1 (centres undefined) + COc1c(OCCCN2CCOCC2)ccc2c3n(c(=NC(=O)c4cnc(N)nc4)nc12)CCN3
viability, T/C (second compound 0.00316 µM, first compound 0.0316 µM): 94.2%
viability, T/C (second compound 0.00316 µM, first compound 0.1 µM): 92.1%
viability, T/C (second compound 0.00316 µM, first compound 0.316 µM): 101%
viability, T/C (second compound 0.00316 µM, first compound 1 µM): 105%
viability, T/C (second compound 0.00316 µM, first compound 3.16 µM): 116%
viability, T/C (second compound 0.00316 µM, first compound 10 µM): 86.9%
viability, T/C (second compound 0.01 µM, first compound 0.0316 µM): 99.2%
viability, T/C (second compound 0.01 µM, first compound 0.1 µM): 100%
viability, T/C (second compound 0.01 µM, first compound 0.316 µM): 101%
viability, T/C (second compound 0.01 µM, first compound 1 µM): 108%
viability, T/C (second compound 0.01 µM, first compound 3.16 µM): 93.3%
viability, T/C (second compound 0.01 µM, first compound 10 µM): 90.1%
viability, T/C (second compound 0.0316 µM, first compound 0.0316 µM): 74.7%
viability, T/C (second compound 0.0316 µM, first compound 0.1 µM): 74.9%
viability, T/C (second compound 0.0316 µM, first compound 0.316 µM): 69.2%
viability, T/C (second compound 0.0316 µM, first compound 1 µM): 70.9%
viability, T/C (second compound 0.0316 µM, first compound 3.16 µM): 75.5%
viability, T/C (second compound 0.0316 µM, first compound 10 µM): 58%
viability, T/C (second compound 0.1 µM, first compound 0.0316 µM): 16.7%
viability, T/C (second compound 0.1 µM, first compound 0.1 µM): 17.3%
viability, T/C (second compound 0.1 µM, first compound 0.316 µM): 17.4%
viability, T/C (second compound 0.1 µM, first compound 1 µM): 15.9%
viability, T/C (second compound 0.1 µM, first compound 3.16 µM): 19%
viability, T/C (second compound 0.1 µM, first compound 10 µM): 17%
viability, T/C (second compound 0.316 µM, first compound 0.0316 µM): 6.31%
viability, T/C (second compound 0.316 µM, first compound 0.1 µM): 6.68%
viability, T/C (second compound 0.316 µM, first compound 0.316 µM): 3.61%
viability, T/C (second compound 0.316 µM, first compound 1 µM): 6.24%
viability, T/C (second compound 0.316 µM, first compound 3.16 µM): 6.1%
viability, T/C (second compound 0.316 µM, first compound 10 µM): 4.81%
viability, T/C (second compound 1 µM, first compound 0.0316 µM): 3.61%
viability, T/C (second compound 1 µM, first compound 0.1 µM): 3.8%
viability, T/C (second compound 1 µM, first compound 0.316 µM): 2.93%
viability, T/C (second compound 1 µM, first compound 1 µM): 2.25%
viability, T/C (second compound 1 µM, first compound 3.16 µM): 3.36%
viability, T/C (second compound 1 µM, first compound 10 µM): 2.45%

IC50 (second compound 0.0316 µM): 175 nM
IC50 (second compound 0.1 µM): 162 nM
IC50 (second compound 0.316 µM): 148 nM
IC50 (second compound 1 µM): 114 nM
IC50 (second compound 3.16 µM): 62.7 nM
IC50 (second compound 10 µM): 23.1 nM
Compound: Cn1cnc2c(F)c(Nc3ccc(Br)cc3Cl)c(C(=O)NOCCO)cc21 + CC(Nc1ncnc2nc[nH]c12)c1cc2cccc(Cl)c2c(=O)n1-c1ccccc1
viability, T/C (second compound 0.0316 µM, first compound 0.00949 µM): 93%
viability, T/C (second compound 0.0316 µM, first compound 0.03 µM): 91.3%
viability, T/C (second compound 0.0316 µM, first compound 0.0949 µM): 58.8%
viability, T/C (second compound 0.0316 µM, first compound 0.3 µM): 38.9%
viability, T/C (second compound 0.0316 µM, first compound 0.949 µM): 23.3%
viability, T/C (second compound 0.0316 µM, first compound 3 µM): 10.3%
viability, T/C (second compound 0.1 µM, first compound 0.00949 µM): 115%
viability, T/C (second compound 0.1 µM, first compound 0.03 µM): 92.3%
viability, T/C (second compound 0.1 µM, first compound 0.0949 µM): 56.4%
viability, T/C (second compound 0.1 µM, first compound 0.3 µM): 40.1%
viability, T/C (second compound 0.1 µM, first compound 0.949 µM): 22.2%
viability, T/C (second compound 0.1 µM, first compound 3 µM): 12%
viability, T/C (second compound 0.316 µM, first compound 0.00949 µM): 91.1%
viability, T/C (second compound 0.316 µM, first compound 0.03 µM): 82.4%
viability, T/C (second compound 0.316 µM, first compound 0.0949 µM): 57.4%
viability, T/C (second compound 0.316 µM, first compound 0.3 µM): 37.5%
viability, T/C (second compound 0.316 µM, first compound 0.949 µM): 15.3%
viability, T/C (second compound 0.316 µM, first compound 3 µM): 12.5%
viability, T/C (second compound 1 µM, first compound 0.00949 µM): 112%
viability, T/C (second compound 1 µM, first compound 0.03 µM): 82.5%
viability, T/C (second compound 1 µM, first compound 0.0949 µM): 49.7%
viability, T/C (second compound 1 µM, first compound 0.3 µM): 35.1%
viability, T/C (second compound 1 µM, first compound 0.949 µM): 19.5%
viability, T/C (second compound 1 µM, first compound 3 µM): 9.14%
viability, T/C (second compound 3.16 µM, first compound 0.00949 µM): 104%
viability, T/C (second compound 3.16 µM, first compound 0.03 µM): 64.1%
viability, T/C (second compound 3.16 µM, first compound 0.0949 µM): 39.9%
viability, T/C (second compound 3.16 µM, first compound 0.3 µM): 28.5%
viability, T/C (second compound 3.16 µM, first compound 0.949 µM): 18.3%
viability, T/C (second compound 3.16 µM, first compound 3 µM): 7.22%
viability, T/C (second compound 10 µM, first compound 0.00949 µM): 75.7%
viability, T/C (second compound 10 µM, first compound 0.03 µM): 41.1%
viability, T/C (second compound 10 µM, first compound 0.0949 µM): 25.4%
viability, T/C (second compound 10 µM, first compound 0.3 µM): 14.1%
viability, T/C (second compound 10 µM, first compound 0.949 µM): 8.69%
viability, T/C (second compound 10 µM, first compound 3 µM): 5.17%
